Experimental data reported in PubChem BioAssay AID2060360 (Molecular Pharmacology Branch, DTP, NCI, 2025).

System: 282377-053-R-J1-PDC tumor spheroids, viability
Assay: Anticancer human tumor 282377-053-R-J1-PDC patient-derived colon adenocarcinoma cell line growth inhibition [TAK]
Details: spheroids with HUVEC and MSC; for IC50: curve of first compound; for viability, T/C: stronger effect = lower value
Procedure, shortened: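 Tumor cells were grown as spheroids with HUVEC and hMSC (60:25:15) and treated with targeted agents combined with TAK-243 or ipatasertib. Drugs were tested in half-log steps down from near the clinical Cmax, or from 10 microM where Cmax was unknown.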
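Also: spheroids exposed to drugs for seven days before readout.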

`CC(C)n1nc(-c2ccc3oc(N)nc3c2)c2c(N)ncnc21` + CC(C)NCC(C(=O)N1CCN(c2ncnc3c2C(C)CC3O)CC1)c1ccc(Cl)cc1 showed an IC50 (second compound 0.3 µM) of over 0.1 µM, an IC50 (second compound 0.949 µM) of 0.0666 µM and an IC50 (second compound 3 µM) of 0.0303 µM. It also gave an IC50 (second compound 9.49 µM) of 0.0147 µM, an IC50 (second compound 30 µM) of 0.00407 µM and a viability, T/C (second compound 0.3 µM, first compound 0.000316 µM) of 106%. For the same molecule, the viability, T/C (second compound 0.3 µM, first compound 0.001 µM) was 103%, the viability, T/C (second compound 0.3 µM, first compound 0.00316 µM) was 95.7% and the viability, T/C (second compound 0.3 µM, first compound 0.01 µM) was 88%. The viability, T/C (second compound 0.3 µM, first compound 0.0316 µM) was 69.7%, the viability, T/C (second compound 0.3 µM, first compound 0.1 µM) was 56.1% and the viability, T/C (second compound 0.949 µM, first compound 0.000316 µM) was 92%. For the same molecule, the viability, T/C (second compound 0.949 µM, first compound 0.001 µM) was 93%, the viability, T/C (second compound 0.949 µM, first compound 0.00316 µM) was 86.3% and the viability, T/C (second compound 0.949 µM, first compound 0.01 µM) was 89.9%. The viability, T/C (second compound 0.949 µM, first compound 0.0316 µM) was 71.7%, the viability, T/C (second compound 0.949 µM, first compound 0.1 µM) was 38% and the viability, T/C (second compound 3 µM, first compound 0.000316 µM) was 83.5%. It also gave a viability, T/C (second compound 3 µM, first compound 0.001 µM) of 85.9%, a viability, T/C (second compound 3 µM, first compound 0.00316 µM) of 79% and a viability, T/C (second compound 3 µM, first compound 0.01 µM) of 71.5%. The viability, T/C (second compound 3 µM, first compound 0.0316 µM) was 49.1%, the viability, T/C (second compound 3 µM, first compound 0.1 µM) was 22.7% and the viability, T/C (second compound 9.49 µM, first compound 0.000316 µM) was 81.4%. The viability, T/C (second compound 9.49 µM, first compound 0.001 µM) was 77.3%, the viability, T/C (second compound 9.49 µM, first compound 0.00316 µM) was 74.7% and the viability, T/C (second compound 9.49 µM, first compound 0.01 µM) was 60.5%. It also gave a viability, T/C (second compound 9.49 µM, first compound 0.0316 µM) of 30%, a viability, T/C (second compound 9.49 µM, first compound 0.1 µM) of 14.8% and a viability, T/C (second compound 30 µM, first compound 0.000316 µM) of 68.8%. It also gave a viability, T/C (second compound 30 µM, first compound 0.001 µM) of 70.4%, a viability, T/C (second compound 30 µM, first compound 0.00316 µM) of 56.5% and a viability, T/C (second compound 30 µM, first compound 0.01 µM) of 25.9%. For the same molecule, the viability, T/C (second compound 30 µM, first compound 0.0316 µM) was 15.9% and the viability, T/C (second compound 30 µM, first compound 0.1 µM) was 8.24%.
Molecule `CCCS(=O)(=O)Nc1ccc(F)c(C(=O)c2c[nH]c3ncc(-c4ccc(Cl)cc4)cc23)c1F` + CC(C)NCC(C(=O)N1CCN(c2ncnc3c2C(C)CC3O)CC1)c1ccc(Cl)cc1 has an IC50 (second compound 0.3 µM) of 7.81 µM, an IC50 (second compound 0.949 µM) of 6.86 µM and an IC50 (second compound 3 µM) of 7.56 µM. The IC50 (second compound 9.49 µM) was 5.95 µM, the IC50 (second compound 30 µM) was 2.99 µM and the viability, T/C (second compound 0.3 µM, first compound 0.316 µM) was 79.5%. For the same molecule, the viability, T/C (second compound 0.3 µM, first compound 1 µM) was 79.8%, the viability, T/C (second compound 0.3 µM, first compound 3.16 µM) was 82.6% and the viability, T/C (second compound 0.3 µM, first compound 10 µM) was 24.6%. It also gave a viability, T/C (second compound 0.3 µM, first compound 31.6 µM) of 1.89%, a viability, T/C (second compound 0.3 µM, first compound 100 µM) of 98.5% and a viability, T/C (second compound 0.949 µM, first compound 0.316 µM) of 76.7%. It also gave a viability, T/C (second compound 0.949 µM, first compound 1 µM) of 79.9%, a viability, T/C (second compound 0.949 µM, first compound 3.16 µM) of 84.2% and a viability, T/C (second compound 0.949 µM, first compound 10 µM) of 7.58%. For the same molecule, the viability, T/C (second compound 0.949 µM, first compound 31.6 µM) was 2.94%, the viability, T/C (second compound 0.949 µM, first compound 100 µM) was 95.3% and the viability, T/C (second compound 3 µM, first compound 0.316 µM) was 76.8%. It also gave a viability, T/C (second compound 3 µM, first compound 1 µM) of 73.7%, a viability, T/C (second compound 3 µM, first compound 3.16 µM) of 80.5% and a viability, T/C (second compound 3 µM, first compound 10 µM) of 33.4%. The viability, T/C (second compound 3 µM, first compound 31.6 µM) was 1.38%, the viability, T/C (second compound 3 µM, first compound 100 µM) was 89.3% and the viability, T/C (second compound 9.49 µM, first compound 0.316 µM) was 72.4%. The viability, T/C (second compound 9.49 µM, first compound 1 µM) was 70.1%, the viability, T/C (second compound 9.49 µM, first compound 3.16 µM) was 71.3% and the viability, T/C (second compound 9.49 µM, first compound 10 µM) was 10.9%. For the same molecule, the viability, T/C (second compound 9.49 µM, first compound 31.6 µM) was 10.1%, the viability, T/C (second compound 9.49 µM, first compound 100 µM) was 76.7% and the viability, T/C (second compound 30 µM, first compound 0.316 µM) was 57.4%. It also gave a viability, T/C (second compound 30 µM, first compound 1 µM) of 61%, a viability, T/C (second compound 30 µM, first compound 3.16 µM) of 49.5% and a viability, T/C (second compound 30 µM, first compound 10 µM) of 9.48%. The viability, T/C (second compound 30 µM, first compound 31.6 µM) was 0.93% and the viability, T/C (second compound 30 µM, first compound 100 µM) was 46.8%.
